Experiments:
[1] = biological target: T1, LIM domain kinase 2 (Homo sapiens, UniProt P53671); assay: Inhibition of human full-length LIMK2 assessed as incorporation of P33 from ATP into biotinylated-cofilin substrate by scintillation counting analysis in presence of 2 uM ATP
[2] = biological target: T2, Rho-associated protein kinase 1 (Homo sapiens, UniProt Q13464); assay: Inhibition of human Rock1 assessed as incorporation of P33 from ATP into biotinylated-cofilin substrate by scintillation counting analysis in presence of 2 uM ATP
[3] = tested on: Mus musculus; assay: Reduction in dexamethasone-induced ocular hypertensive C57BL/6J-Tyr c-Brd x 129S5/SvEvBrd, F2 generation mouse assessed as intraocular pressure at 5 mg/ml, topical instillation measured after 2 hrs; format: functional, Eye
[4] = Stability of the compound in 1:1 H2O/MeOH assessed as decomposition measured at 60 degC after 24 hrs by HPLC; format: physicochemical
[5] = Stability of the compound in aqueous solution formulation at 60 degC after 14 days; format: physicochemical; conditions: read-out: Stability
[6] = biological target: T3, Rho-associated protein kinase 2 (Homo sapiens, UniProt O75116); assay: Inhibition of human Rock2 assessed as incorporation of P33 from ATP into biotinylated-cofilin substrate by scintillation counting analysis in presence of 2 uM ATP
[7] = Cmax in rat dosed topically; format: ADME, organism-based; conditions: in vivo, topical or ocular
[8] = biological target: T1, LIM domain kinase 2; assay: Inhibition of human full-length LIMK2 assessed as incorporation of P33 from ATP into biotinylated-cofilin substrate by scintillation counting analysis in presence of 200 uM ATP
[9] = biological target: T1, LIM domain kinase 2; assay: Binding affinity to human LIMK2
[10] = biological target: T3, Rho-associated protein kinase 2; assay: Binding affinity to human Rock2
[11] = biological target: T2, Rho-associated protein kinase 1; assay: Inhibition of human Rock1 assessed as incorporation of P33 from ATP into biotinylated-cofilin substrate by scintillation counting analysis in presence of 200 uM ATP
[12] = biological target: T3, Rho-associated protein kinase 2; assay: Inhibition of human Rock2 assessed as incorporation of P33 from ATP into biotinylated-cofilin substrate by scintillation counting analysis in presence of 200 uM ATP
[13] = biological target: LIM domain kinase 1 (Homo sapiens, UniProt P53667); assay: Inhibition of human LIMK1 assessed as incorporation of P33 from ATP into biotinylated-cofilin substrate by scintillation counting analysis in presence of 2 uM ATP
LIM domain kinase 1, sequence (P53667 whole entry, the tested form may be a part): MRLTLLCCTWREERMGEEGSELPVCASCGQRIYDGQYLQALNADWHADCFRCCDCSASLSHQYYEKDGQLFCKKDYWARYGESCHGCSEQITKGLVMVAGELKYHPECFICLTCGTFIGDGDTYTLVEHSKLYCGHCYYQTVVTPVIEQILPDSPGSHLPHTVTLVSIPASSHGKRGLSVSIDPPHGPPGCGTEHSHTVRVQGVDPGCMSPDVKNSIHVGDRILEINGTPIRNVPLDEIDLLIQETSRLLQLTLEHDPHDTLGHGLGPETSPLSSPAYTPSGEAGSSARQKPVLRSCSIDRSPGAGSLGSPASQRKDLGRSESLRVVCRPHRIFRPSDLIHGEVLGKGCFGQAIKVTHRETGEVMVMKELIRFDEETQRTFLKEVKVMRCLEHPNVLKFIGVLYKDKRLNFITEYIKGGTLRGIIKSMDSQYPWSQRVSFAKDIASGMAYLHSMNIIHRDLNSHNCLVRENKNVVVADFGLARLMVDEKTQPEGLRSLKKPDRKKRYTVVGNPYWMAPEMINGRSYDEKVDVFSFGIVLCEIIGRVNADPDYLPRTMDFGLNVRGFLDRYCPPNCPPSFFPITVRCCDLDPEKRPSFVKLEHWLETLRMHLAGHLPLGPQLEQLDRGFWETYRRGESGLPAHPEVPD

T1 sequence (P53671 whole entry, the tested form may be a part): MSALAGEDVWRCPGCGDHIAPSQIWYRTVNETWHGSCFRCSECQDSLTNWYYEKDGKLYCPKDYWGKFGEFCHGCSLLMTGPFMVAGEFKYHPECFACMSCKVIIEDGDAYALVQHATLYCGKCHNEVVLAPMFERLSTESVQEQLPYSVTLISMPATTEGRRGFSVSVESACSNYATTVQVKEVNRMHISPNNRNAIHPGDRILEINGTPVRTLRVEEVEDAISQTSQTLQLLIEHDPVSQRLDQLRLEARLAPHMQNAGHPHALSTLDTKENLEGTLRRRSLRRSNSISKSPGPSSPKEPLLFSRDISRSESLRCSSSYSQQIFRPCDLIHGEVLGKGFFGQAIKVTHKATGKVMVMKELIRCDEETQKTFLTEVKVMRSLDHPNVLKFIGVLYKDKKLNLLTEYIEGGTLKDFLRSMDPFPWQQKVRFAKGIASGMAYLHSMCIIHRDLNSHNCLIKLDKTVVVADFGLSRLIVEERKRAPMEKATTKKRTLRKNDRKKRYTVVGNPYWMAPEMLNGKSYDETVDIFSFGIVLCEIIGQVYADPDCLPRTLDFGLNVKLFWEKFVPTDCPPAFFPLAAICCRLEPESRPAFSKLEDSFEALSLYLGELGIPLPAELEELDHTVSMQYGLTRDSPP
T2 sequence (Q13464 whole entry): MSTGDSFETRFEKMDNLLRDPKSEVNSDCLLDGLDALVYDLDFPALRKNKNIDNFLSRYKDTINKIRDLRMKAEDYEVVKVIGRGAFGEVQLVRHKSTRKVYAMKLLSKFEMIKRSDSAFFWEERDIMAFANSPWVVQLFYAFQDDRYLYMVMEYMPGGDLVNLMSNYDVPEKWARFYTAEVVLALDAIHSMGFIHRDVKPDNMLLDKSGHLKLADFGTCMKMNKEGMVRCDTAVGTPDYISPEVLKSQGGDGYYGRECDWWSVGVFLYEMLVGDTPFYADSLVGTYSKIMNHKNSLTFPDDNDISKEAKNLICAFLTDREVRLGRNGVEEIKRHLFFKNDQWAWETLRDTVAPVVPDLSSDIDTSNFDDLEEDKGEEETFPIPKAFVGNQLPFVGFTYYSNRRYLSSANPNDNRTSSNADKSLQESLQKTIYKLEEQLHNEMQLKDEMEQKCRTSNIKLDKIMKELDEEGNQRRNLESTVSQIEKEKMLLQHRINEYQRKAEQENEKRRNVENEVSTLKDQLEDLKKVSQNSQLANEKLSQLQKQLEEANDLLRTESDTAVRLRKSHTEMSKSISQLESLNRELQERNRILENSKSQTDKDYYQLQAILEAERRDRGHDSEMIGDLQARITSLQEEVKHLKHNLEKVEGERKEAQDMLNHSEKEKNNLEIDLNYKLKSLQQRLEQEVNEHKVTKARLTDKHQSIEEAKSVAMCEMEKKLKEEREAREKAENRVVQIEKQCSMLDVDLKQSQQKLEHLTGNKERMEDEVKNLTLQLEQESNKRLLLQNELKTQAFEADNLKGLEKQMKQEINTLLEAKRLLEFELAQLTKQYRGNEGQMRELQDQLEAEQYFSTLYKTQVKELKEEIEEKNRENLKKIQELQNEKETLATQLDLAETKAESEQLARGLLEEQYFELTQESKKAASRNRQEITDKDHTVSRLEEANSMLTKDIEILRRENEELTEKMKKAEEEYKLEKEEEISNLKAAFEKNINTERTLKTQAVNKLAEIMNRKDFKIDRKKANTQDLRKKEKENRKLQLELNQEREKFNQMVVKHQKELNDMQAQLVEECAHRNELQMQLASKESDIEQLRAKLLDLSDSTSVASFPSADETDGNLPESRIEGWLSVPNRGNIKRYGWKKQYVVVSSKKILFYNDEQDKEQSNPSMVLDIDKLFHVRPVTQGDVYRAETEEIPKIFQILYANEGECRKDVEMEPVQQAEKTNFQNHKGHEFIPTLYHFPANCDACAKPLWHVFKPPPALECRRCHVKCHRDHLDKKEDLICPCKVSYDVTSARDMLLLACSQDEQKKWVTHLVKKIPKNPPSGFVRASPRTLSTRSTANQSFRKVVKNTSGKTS
T3 sequence (O75116 whole entry): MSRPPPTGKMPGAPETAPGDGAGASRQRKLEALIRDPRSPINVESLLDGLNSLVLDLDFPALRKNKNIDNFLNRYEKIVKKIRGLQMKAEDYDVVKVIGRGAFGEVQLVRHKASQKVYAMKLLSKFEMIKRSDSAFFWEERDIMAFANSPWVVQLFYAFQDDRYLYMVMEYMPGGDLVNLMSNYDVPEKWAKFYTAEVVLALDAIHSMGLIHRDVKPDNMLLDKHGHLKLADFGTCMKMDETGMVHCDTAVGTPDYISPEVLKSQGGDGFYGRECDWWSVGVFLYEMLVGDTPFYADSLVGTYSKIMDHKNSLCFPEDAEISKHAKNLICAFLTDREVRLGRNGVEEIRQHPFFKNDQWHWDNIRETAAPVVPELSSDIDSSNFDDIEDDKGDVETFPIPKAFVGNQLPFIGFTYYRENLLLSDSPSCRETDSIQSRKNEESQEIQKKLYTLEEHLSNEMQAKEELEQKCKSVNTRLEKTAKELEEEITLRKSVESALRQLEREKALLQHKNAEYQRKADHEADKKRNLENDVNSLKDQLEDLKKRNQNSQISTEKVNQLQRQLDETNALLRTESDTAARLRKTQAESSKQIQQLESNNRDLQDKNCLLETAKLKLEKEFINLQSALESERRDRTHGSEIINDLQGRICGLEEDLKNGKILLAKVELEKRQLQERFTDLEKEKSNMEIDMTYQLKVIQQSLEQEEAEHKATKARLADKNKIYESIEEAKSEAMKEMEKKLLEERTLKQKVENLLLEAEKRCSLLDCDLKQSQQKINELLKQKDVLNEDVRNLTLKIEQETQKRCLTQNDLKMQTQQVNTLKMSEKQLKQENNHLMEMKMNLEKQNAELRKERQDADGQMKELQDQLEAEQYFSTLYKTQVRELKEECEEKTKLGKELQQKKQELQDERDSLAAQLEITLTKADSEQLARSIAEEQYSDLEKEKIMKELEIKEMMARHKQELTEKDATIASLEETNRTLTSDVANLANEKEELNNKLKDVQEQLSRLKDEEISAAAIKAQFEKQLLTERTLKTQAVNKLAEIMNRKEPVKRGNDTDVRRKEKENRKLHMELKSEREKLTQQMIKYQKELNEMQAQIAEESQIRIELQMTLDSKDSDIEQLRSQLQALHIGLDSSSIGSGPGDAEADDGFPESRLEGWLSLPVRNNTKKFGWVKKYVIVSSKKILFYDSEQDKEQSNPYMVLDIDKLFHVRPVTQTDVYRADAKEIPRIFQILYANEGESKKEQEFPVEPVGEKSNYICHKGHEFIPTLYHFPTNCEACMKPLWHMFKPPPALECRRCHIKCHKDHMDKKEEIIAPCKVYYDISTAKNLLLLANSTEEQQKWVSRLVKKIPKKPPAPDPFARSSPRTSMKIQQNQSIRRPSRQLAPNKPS

| SMILES | IC50 [1] | further results |
| --- | --- | --- |
| Cc1c[nH]c2ncnc(N3CCC(C(=O)Nc4cccc(OC(C)C)c4)CC3)c12 | 0.33 µM |  |
| COc1cccc(NC(=O)N2CCN(c3ncnc4[nH]cc(C)c34)C[C@@H]2C)c1 | 0.0027 µM |  |
| Cc1c[nH]c2ncnc(N3CCN4C(=O)N(c5ccccc5)CC4C3)c12 (centres undefined) | > 1 µM |  |
| Cc1c[nH]c2ncnc(N3CCC(Cc4c[nH]cn4)(C(=O)Nc4cccc(OC(=O)N(C)C)c4)CC3)c12 | 0.001 µM | IC50 [2]: 0.514 µM; Activity [3]: -3.5 mmHg |
| Cc1c[nH]c2ncnc(N3CCN(C(=O)Nc4ccccc4)[C@@H](C)C3)c12 | 0.0012 µM | Stability [4]: Unstable |
| Cc1c[nH]c2ncnc(N3CCC(O)(C(=O)Nc4cccc(OC(=O)N(C)C)c4)CC3)c12 | 0.138 µM |  |
| Cc1c[nH]c2ncnc(N3CCC(CN)(C(=O)Nc4cccc(OC(=O)N(C)C)c4)CC3)c12 [LX-7101] | 0.0043 µM | IC50 [2]: 0.069 µM; remaining at 336 h [5]: 99%; IC50 [6]: 0.032 µM; Cmax [7]: 0.012 µM; IC50 [8]: 0.0075 µM; Kd [9]: < 1 µM; Kd [10]: < 1 µM; IC50 [11]: 2.2 µM; Activity [3]: -4.2 mmHg; IC50 [12]: 0.34 µM |
| Cc1c[nH]c2ncnc(N3CC[C@H](C(=O)Nc4cccc(OC(=O)N(C)C)c4)[C@@H](C)C3)c12 (relative stereo) | 0.21 µM |  |
| Cc1c[nH]c2ncnc(N3CCN(C(=O)N[C@@H](C)c4ccccc4)[C@@H](C)C3)c12 | 0.0099 µM |  |
| Cc1c[nH]c2ncnc(N3CCN(C(=O)Nc4cccc(OC(=O)N(C)C)c4)C(C(C)(C)C)C3)c12 (centres undefined) | 0.026 µM |  |
| Cc1c[nH]c2ncnc(N3CCC(C)(C(=O)Nc4cccc(C(C)(C)C)c4)CC3)c12 | 0.0032 µM |  |
| C=CCC1(C(=O)Nc2cccc(Cl)c2)CCN(c2ncnc3[nH]cc(C)c23)CC1 | 0.0019 µM |  |
| COCCOCC1(C(=O)Nc2cccc(OC(=O)N(C)C)c2)CCN(c2ncnc3[nH]cc(C)c23)CC1 | 0.0027 µM | IC50 [2]: > 2.8 µM; Activity [3]: -1.8 mmHg |
| Cc1c[nH]c2ncnc(N3CCN(C(=O)N[C@H](C)c4ccccc4)[C@@H](C)C3)c12 | 0.18 µM |  |
| Cc1c[nH]c2ncnc(N3CC[C@H](C(=O)Nc4cccc(OC(=O)N(C)C)c4)[C@H](C)C3)c12 (relative stereo) | 0.11 µM |  |
| Cc1c[nH]c2ncnc(N3CCN(C(=O)Cc4ccccc4)[C@@H](C)C3)c12 | 0.66 µM | Stability [4]: Stable |
| Cc1c[nH]c2ncnc(N3CCC(C)(C(=O)Nc4cccc(OC(=O)N(C)C)c4)CC3)c12 | 0.0048 µM |  |
| Cc1c[nH]c2ncnc(N3CCC(C(=O)Nc4cccc(OC(=O)N(C)C)c4)(N(C)C)CC3)c12 | 0.0051 µM |  |
| Cc1c[nH]c2ncnc(N3CCC(CCN(C)C)(C(=O)Nc4cccc(OC(=O)N(C)C)c4)CC3)c12 | 0.0073 µM | IC50 [2]: 0.139 µM; IC50 [13]: 0.134 µM; Activity [3]: -3.4 mmHg |
| C=CCC1(C(=O)Nc2cccc(OC(=O)N(C)C)c2)CCN(c2ncnc3[nH]cc(C)c23)CC1 | 0.0022 µM |  |

— ChEMBL document CHEMBL3352182, “Discovery and Development of LX7101, a Dual LIM-Kinase and ROCK Inhibitor for the Treatment of Glaucoma” (ACS Med Chem Lett, 2015)
